Measured values taken from paper PMC11612555, “Impact of camel milk lactoferrin peptides against breast cancer cells: in silico and in vitro study” (Frontiers in Pharmacology, 2024).
Values after ≈ are worked out from the molar mass of the structure shown. Where two headings read alike, the source gives them in different places. Ends that are not written are not given here. Peptide text beside a SMILES is read from it.

Key:
HDFa cells = assay: MTT assay on HDFa normal cells, 48 h; type: cell-based, human; details: for IC50 Value: mean ± SD
Experimental: DMEM medium supplemented with 10% fetal bovine serum (FBS) and 1% penicillin-streptomycin (10,000 U/mL) (complete media) was prepared to culture MCF-7 and HDFa cells in T25 flasks at 37°C in a CO2 incubator. Once the cells had adhered and grown to 70%–90% confluence within 24–48 h, they were transferred to new flasks. 2 mL of 0.25% trypsin was added to detach the cells, which were then incubated for 5 min at 37°C. The trypsin activity was stopped by adding 2 mL of complete media. The detached cells were collected into a tube and centrifuged at 1,500 rpm for 5 min. After removing the supernatant, 3 mL of media was added to resuspend the cell pellet. 20 μL of suspended cells were mixed with 20 µL of 0.4% trypan blue for staining and cell counting. 100 μL of suspended cells in complete media, containing approximately 10^4 cells, were added to each well of a 96-well plate and incubated for 24 h to allow cell attachment. Peptides (PEP20, PEP24, PEP63, PEP66, PEP67, and PEP74) at various concentrations (200, 100, 50, 25, 12.5, 6.25 μg/mL) were then added to the media in each well. Each concentration was repeated three times. After a 48-h incubation period at 37°C, the peptide-treated medium was replaced with 100 µL of 0.5 mg/mL MTT and incubated for 4 h at 37°C in the dark. Following removal of the MTT and addition of 100 µL of DMSO, the absorbance of each well in the 96-well plate was measured at 595 nm using an ELISA reader (Bio-RAD microplate reader, Japan) ([Ali et al., 2018]; [Salim et al., 2022]).
The percentage viability was calculated by multiplying the absorbance of treated cells by 100 and dividing the absorbance of untreated cells. The viability of untreated cells is considered 100%. The each concentration of each peptide and cisplatin was repeated triplicate. The unite of cell viability and IC50 are percentage and μg/mL. The viability and IC50 of the treated cells are expressed as the mean ± standard deviation (SD). GraphPad Prism software (version 9.0, San Diego, CA, United States) was used to calculate the IC50 values of the peptides, […], and their combination.

MCF-7 cells = tested on: MCF-7 cells; set-up: % of inhibition of MCF-7: dose or concentration left out as unconfirmed; details: for IC50 Range / IC50 Value: MCF-7, MTT; for IC50 Value: mean ± SD
Experimental: DMEM medium supplemented with 10% fetal bovine serum (FBS) and 1% penicillin-streptomycin (10,000 U/mL) (complete media) was prepared to culture MCF-7 and HDFa cells in T25 flasks at 37°C in a CO2 incubator. Once the cells had adhered and grown to 70%–90% confluence within 24–48 h, they were transferred to new flasks. 2 mL of 0.25% trypsin was added to detach the cells, which were then incubated for 5 min at 37°C. The trypsin activity was stopped by adding 2 mL of complete media. The detached cells were collected into a tube and centrifuged at 1,500 rpm for 5 min. After removing the supernatant, 3 mL of media was added to resuspend the cell pellet. 20 μL of suspended cells were mixed with 20 µL of 0.4% trypan blue for staining and cell counting. 100 μL of suspended cells in complete media, containing approximately 10^4 cells, were added to each well of a 96-well plate and incubated for 24 h to allow cell attachment. […] Each concentration was repeated three times. After a 48-h incubation period at 37°C, the peptide-treated medium was replaced with 100 µL of 0.5 mg/mL MTT and incubated for 4 h at 37°C in the dark. Following removal of the MTT and addition of 100 µL of DMSO, the absorbance of each well in the 96-well plate was measured at 595 nm using an ELISA reader (Bio-RAD microplate reader, Japan) ([Ali et al., 2018]; [Salim et al., 2022]).
The percentage viability was calculated by multiplying the absorbance of treated cells by 100 and dividing the absorbance of untreated cells. The viability of untreated cells is considered 100%. The each concentration of each peptide and cisplatin was repeated triplicate. The unite of cell viability and IC50 are percentage and μg/mL. The viability and IC50 of the treated cells are expressed as the mean ± standard deviation (SD). GraphPad Prism software (version 9.0, San Diego, CA, United States) was used to calculate the IC50 values of the peptides, mitotane, and their combination.

[1] = IC50 of HDFa related to IC50 of MCF-7

Row | Compound | IC50 Range (HDFa cells) [µg/mL] | SI (selectivity index) (MCF-7 cells; [1]) | IC50 Range (MCF-7 cells; 48 h) [µg/mL] | IC50 Value (MCF-7 cells; 48 h) [µg/mL] | also measured
1 | N.N.[Cl][Pt][Cl] [Cisplatin, reference compound] | 5.650 to 7.856 | 1.565 | 3.581 to 5.055 | 4.255 ± 0.738 | IC50 Value (HDFa cells): 6.663 ± 1.10 µg/mL; IC50 Value (HDFa cells; listed as cisplatin): 6.66 µg/mL; IC50 Value (MCF-7 cells; 48 h, listed as cisplatin): 4.25 µg/mL
2 | CSCC[C@H](NC(=O)[C@H](CC(C)C)NC(=O)[C@H](Cc1ccccc1)NC(=O)[C@H](C)NC(=O)[C@H](CS)NC(=O)[C@H](C)NC(=O)[C@H](CCC(=O)O)NC(=O)[C@H](CC(C)C)NC(=O)[C@H](CC(C)C)NC(=O)[C@@H]1CCCN1C(=O)[C@H](CO)NC(=O)[C@@H](NC(=O)[C@H](CO)NC(=O)[C@@H](N)CS)[C@@H](C)O)C(=O)N[C@@H](CCCNC(=N)N)C(=O)O [PEP66, CSTSPLLEACAFLMR] (H-CSTSPLLEACAFLMR-OH; N-terminus and C-terminus assumed) | 137.2 to 206.9 | 3.19 | 46.73 to 59.71 | 52.82 ± 6.49 (≈ 32.2 µM) | % of inhibition of MCF-7 (MCF-7 cells; concentration (Figure 6)): 76.90%; percentage of MCF7 inhibition (MCF-7 cells; dose of 200 μg/mL): 77%
3 | LFFPALLSLGALGLCLAASK [PEP67] |  |  |  |  | SI (selectivity index) (MCF-7 cells): 0.6
4 | PWNHIKRYF [PEP24, PWNHIKRYF] |  |  |  |  | IC50 (MCF-7 cells; 48 h): > 200 µg/mL
